Reference: US11890287B2, “Therapeutic compounds and compositions for treating social disorders and substance use disorders” (Kinoxis Therapeutics Pty Ltd, priority 2015, dated 2024)

What was measured:
[1] = tested on: SH-SY5Y neuroblastoma cells; experiment: Cell viability (Cell Titer Blue); format: cell-based; conditions: 48 hours; for Viability: mean ± SD
Procedure: No apparent cytotoxicity of SOC-1 has been seen in vitro or toxicity in vivo. In a test, SH-SY5Y neuroblastoma cells and HEK-293 cells (4×10^4 cells per well) were exposed to OT or SOC-1 (0.01-10 μM) for 48 hours, with daily media changes. Viability of cells was assessed after a 4 hour exposure to Cell Titer Blue (Promega).

M1 = biological target: T1, M1 (Homo sapiens, UniProt P11229); experiment: PDSP orthosteric binding screen
T1 construct: Psychoactive Drug Screening Program (PDSP)
From the text: (§1) Comprehensive screening of affinity for the orthosteric binding sites for numerous receptors from the Psychoactive Drug Screening Program (PDSP) have failed as yet to identify a target, despite the powerful OT-like behavioural effects of the compound evident in vivo and the clear activation of brain OT systems evident from our Fos data.

M2 = biological target: T2, M2 (Homo sapiens, UniProt P08172); experiment: PDSP orthosteric binding screen
T2 construct: Psychoactive Drug Screening Program (PDSP)
From the text: as §1

Beta3 = biological target: T3, Beta3 (Homo sapiens, UniProt P13945); experiment: PDSP orthosteric binding screen
T3 construct: Psychoactive Drug Screening Program (PDSP)
From the text: as §1

M4 = biological target: T4, M4 (Homo sapiens, UniProt P08173); experiment: PDSP orthosteric binding screen
T4 construct: Psychoactive Drug Screening Program (PDSP)
From the text: as §1

D1 = biological target: T5, D1 (Homo sapiens, UniProt P21728); experiment: PDSP orthosteric binding screen
T5 construct: Psychoactive Drug Screening Program (PDSP)
From the text: as §1

D5 = biological target: T6, D5 (Homo sapiens, UniProt P21918); experiment: PDSP orthosteric binding screen
T6 construct: Psychoactive Drug Screening Program (PDSP)
From the text: as §1

D4 = biological target: T7, D4 (Homo sapiens, UniProt P21917); experiment: PDSP orthosteric binding screen
T7 construct: Psychoactive Drug Screening Program (PDSP)
From the text: as §1

D2 = biological target: T8, D2 (Homo sapiens, UniProt P14416); experiment: PDSP orthosteric binding screen
T8 construct: Psychoactive Drug Screening Program (PDSP)
From the text: as §1

NET = biological target: T9, NET (Homo sapiens, UniProt P23975); experiment: PDSP orthosteric binding screen
T9 construct: Psychoactive Drug Screening Program (PDSP)
From the text: as §1

Sigma 1 = experiment: PDSP orthosteric binding screen
From the text: as §1

5-HT2B = biological target: T10, 5-HT2B (Homo sapiens, UniProt P41595); experiment: PDSP orthosteric binding screen
T10 construct: Psychoactive Drug Screening Program (PDSP)
From the text: as §1

Beta1 = biological target: T11, Beta1 (Homo sapiens, UniProt P08588); experiment: PDSP orthosteric binding screen
T11 construct: Psychoactive Drug Screening Program (PDSP)
From the text: as §1

DAT = biological target: T12, DAT (Homo sapiens, UniProt Q01959); experiment: PDSP orthosteric binding screen
T12 construct: Psychoactive Drug Screening Program (PDSP)
From the text: as §1

GABAA = experiment: PDSP orthosteric binding screen
From the text: as §1

5-HT1B = biological target: T13, 5-HT1B (Homo sapiens, UniProt P28222); experiment: PDSP orthosteric binding screen
T13 construct: Psychoactive Drug Screening Program (PDSP)
From the text: as §1

Alpha2C = biological target: T14, Alpha2C (Homo sapiens, UniProt P18825); experiment: PDSP orthosteric binding screen
T14 construct: Psychoactive Drug Screening Program (PDSP)
From the text: as §1

Alpha2A = biological target: T15, Alpha2A (Homo sapiens, UniProt P08913); experiment: PDSP orthosteric binding screen
T15 construct: Psychoactive Drug Screening Program (PDSP)
From the text: as §1

D3 = biological target: T16, D3 (Homo sapiens, UniProt P35462); experiment: PDSP orthosteric binding screen
T16 construct: Psychoactive Drug Screening Program (PDSP)
From the text: as §1

5-HT2A = biological target: T17, 5-HT2A (Homo sapiens, UniProt P28223); experiment: PDSP orthosteric binding screen
T17 construct: Psychoactive Drug Screening Program (PDSP)
From the text: as §1

DOR = biological target: T18, DOR (Homo sapiens, UniProt P41143); experiment: PDSP orthosteric binding screen
T18 construct: Psychoactive Drug Screening Program (PDSP)
From the text: as §1

KOR = biological target: T19, KOR (Homo sapiens, UniProt P41145); experiment: PDSP orthosteric binding screen
T19 construct: Psychoactive Drug Screening Program (PDSP)
From the text: as §1

5-HT1A = biological target: T20, 5-HT1A (Homo sapiens, UniProt P08908); experiment: PDSP orthosteric binding screen
T20 construct: Psychoactive Drug Screening Program (PDSP)
From the text: as §1

5-ht1e = biological target: T21, 5-ht1e (Homo sapiens, UniProt P28566); experiment: PDSP orthosteric binding screen
T21 construct: Psychoactive Drug Screening Program (PDSP)
From the text: as §1

MOR = biological target: T22, MOR (Homo sapiens, UniProt P35372); experiment: PDSP orthosteric binding screen
T22 construct: Psychoactive Drug Screening Program (PDSP)
From the text: as §1

5-HT2C = biological target: T23, 5-HT2C (Homo sapiens, UniProt P28335); experiment: PDSP orthosteric binding screen
T23 construct: Psychoactive Drug Screening Program (PDSP)
From the text: as §1

H2 = biological target: T24, H2 (Homo sapiens, UniProt P25021); experiment: PDSP orthosteric binding screen
T24 construct: Psychoactive Drug Screening Program (PDSP)
From the text: as §1

5-HT6 = biological target: T25, 5-HT6 (Homo sapiens, UniProt P50406); experiment: PDSP orthosteric binding screen
T25 construct: Psychoactive Drug Screening Program (PDSP)
From the text: as §1

M3 = biological target: T26, M3 (Homo sapiens, UniProt P20309); experiment: PDSP orthosteric binding screen
T26 construct: Psychoactive Drug Screening Program (PDSP)
From the text: as §1

BZP Rat Brain Site = experiment: PDSP orthosteric binding screen
From the text: as §1

H3 = biological target: T27, H3 (Homo sapiens, UniProt Q9Y5N1); experiment: PDSP orthosteric binding screen
T27 construct: Psychoactive Drug Screening Program (PDSP)
From the text: as §1

[2] = tested on: Fos-positive cells in brain regions of interest; experiment: Fos immunohistochemistry in rat brain; format: in vivo, male Wistar rats
Procedure: Fos immunohistochemistry was used to identify the neural “signature” of SOC-1 (5 mg/kg) in rat brain relative to injections of peripheral oxytocin (OT) (1 mg/kg). SOC-1 produces a similar overall pattern of neural activation and behavioural effects as OT. However, the effects are much larger and additional areas are activated by SOC-1 that are implicated in the regulation of social behaviour (e.g. lateral septum, medial preoptic area and supraoptic nucleus). SOC-1 produces powerful activation of OT-containing neurons in both the supraoptic (FIG. 6: (A)=vehicle; (B)=oxytocin; and (C)=SOC-1) and paraventricular nucleus of the hypothalamus.

V2 = V2 (Homo sapiens, UniProt P30518); experiment: Orthosteric binding, AVP receptors

T6 sequence (P21918 whole entry): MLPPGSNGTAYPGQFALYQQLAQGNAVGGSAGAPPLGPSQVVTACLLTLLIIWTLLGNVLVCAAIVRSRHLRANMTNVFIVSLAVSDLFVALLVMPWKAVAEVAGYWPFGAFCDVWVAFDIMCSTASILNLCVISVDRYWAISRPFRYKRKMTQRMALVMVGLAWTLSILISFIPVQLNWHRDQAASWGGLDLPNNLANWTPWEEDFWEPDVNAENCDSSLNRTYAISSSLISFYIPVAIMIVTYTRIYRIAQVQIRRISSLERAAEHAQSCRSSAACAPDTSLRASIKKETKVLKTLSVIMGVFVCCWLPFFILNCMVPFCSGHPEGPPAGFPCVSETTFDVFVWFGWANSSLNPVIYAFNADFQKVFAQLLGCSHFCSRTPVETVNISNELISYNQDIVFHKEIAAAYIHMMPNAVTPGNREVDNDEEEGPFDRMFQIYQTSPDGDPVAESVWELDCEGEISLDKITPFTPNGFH
T26 sequence (P20309 whole entry): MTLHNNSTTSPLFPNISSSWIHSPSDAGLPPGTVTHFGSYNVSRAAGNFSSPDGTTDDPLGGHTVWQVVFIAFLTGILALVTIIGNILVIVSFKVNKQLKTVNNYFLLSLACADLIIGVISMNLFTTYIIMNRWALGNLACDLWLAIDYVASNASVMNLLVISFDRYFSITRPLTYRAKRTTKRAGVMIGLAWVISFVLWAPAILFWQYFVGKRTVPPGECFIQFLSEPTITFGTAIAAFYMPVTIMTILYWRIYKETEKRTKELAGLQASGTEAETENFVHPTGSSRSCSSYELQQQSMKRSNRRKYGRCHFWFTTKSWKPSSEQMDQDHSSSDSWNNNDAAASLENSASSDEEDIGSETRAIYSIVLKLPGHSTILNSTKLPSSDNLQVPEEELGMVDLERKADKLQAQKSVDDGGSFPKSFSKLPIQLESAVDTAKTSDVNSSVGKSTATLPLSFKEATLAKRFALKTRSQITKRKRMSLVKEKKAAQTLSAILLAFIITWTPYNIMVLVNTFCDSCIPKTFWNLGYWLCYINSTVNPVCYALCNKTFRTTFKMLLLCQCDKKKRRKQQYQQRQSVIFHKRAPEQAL
T11 sequence (P08588 whole entry): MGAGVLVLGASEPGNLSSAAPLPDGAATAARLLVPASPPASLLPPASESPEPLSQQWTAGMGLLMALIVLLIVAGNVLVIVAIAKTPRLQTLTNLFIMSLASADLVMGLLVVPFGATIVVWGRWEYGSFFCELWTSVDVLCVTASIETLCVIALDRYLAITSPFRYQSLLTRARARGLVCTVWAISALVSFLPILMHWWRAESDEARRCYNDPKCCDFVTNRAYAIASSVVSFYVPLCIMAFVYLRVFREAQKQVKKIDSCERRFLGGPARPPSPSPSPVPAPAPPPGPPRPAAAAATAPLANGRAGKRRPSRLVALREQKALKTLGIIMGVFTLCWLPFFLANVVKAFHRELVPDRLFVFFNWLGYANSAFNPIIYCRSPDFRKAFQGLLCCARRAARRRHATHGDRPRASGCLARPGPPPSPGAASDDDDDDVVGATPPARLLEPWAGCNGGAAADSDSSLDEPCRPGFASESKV
T12 sequence (Q01959 whole entry, species assumed): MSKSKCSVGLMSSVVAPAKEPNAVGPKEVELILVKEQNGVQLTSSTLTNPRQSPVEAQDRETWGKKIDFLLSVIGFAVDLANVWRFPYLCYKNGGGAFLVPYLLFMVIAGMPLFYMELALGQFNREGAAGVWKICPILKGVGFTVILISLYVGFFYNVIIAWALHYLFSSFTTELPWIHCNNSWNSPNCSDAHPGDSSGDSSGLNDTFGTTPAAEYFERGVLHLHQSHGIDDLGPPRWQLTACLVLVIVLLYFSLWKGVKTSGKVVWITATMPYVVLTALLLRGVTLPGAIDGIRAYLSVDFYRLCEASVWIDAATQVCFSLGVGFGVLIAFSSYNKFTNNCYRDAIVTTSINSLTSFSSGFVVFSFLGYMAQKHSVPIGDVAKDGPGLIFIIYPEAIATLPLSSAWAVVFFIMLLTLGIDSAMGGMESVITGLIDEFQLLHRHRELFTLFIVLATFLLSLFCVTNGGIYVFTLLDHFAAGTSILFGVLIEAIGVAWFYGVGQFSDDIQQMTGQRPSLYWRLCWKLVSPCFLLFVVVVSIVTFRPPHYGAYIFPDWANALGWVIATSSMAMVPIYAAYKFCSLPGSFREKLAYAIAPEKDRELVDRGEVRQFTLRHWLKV
T17 sequence (P28223 whole entry): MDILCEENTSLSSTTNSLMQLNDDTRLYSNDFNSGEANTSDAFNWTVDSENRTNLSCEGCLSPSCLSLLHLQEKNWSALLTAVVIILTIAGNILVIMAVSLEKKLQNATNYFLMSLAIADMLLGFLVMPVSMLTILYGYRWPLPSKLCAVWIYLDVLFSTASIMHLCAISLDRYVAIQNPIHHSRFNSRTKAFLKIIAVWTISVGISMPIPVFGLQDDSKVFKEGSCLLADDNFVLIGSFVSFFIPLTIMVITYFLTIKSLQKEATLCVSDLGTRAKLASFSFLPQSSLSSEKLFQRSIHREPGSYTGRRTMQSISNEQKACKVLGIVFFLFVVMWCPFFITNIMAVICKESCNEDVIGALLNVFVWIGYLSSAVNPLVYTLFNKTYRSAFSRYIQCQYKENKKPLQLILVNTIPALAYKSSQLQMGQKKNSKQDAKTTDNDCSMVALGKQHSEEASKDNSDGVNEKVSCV
T13 sequence (P28222 whole entry, species assumed): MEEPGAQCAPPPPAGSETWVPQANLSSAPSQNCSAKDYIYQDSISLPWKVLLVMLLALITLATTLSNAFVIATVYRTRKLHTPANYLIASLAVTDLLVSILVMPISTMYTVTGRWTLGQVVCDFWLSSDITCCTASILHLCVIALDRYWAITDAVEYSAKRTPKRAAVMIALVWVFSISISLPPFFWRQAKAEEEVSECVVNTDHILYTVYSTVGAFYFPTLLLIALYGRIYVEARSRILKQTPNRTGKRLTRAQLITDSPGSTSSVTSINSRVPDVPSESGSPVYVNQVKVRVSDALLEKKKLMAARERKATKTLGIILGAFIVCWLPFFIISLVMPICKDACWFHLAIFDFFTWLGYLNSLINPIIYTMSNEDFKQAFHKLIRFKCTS
T9 sequence (P23975 whole entry): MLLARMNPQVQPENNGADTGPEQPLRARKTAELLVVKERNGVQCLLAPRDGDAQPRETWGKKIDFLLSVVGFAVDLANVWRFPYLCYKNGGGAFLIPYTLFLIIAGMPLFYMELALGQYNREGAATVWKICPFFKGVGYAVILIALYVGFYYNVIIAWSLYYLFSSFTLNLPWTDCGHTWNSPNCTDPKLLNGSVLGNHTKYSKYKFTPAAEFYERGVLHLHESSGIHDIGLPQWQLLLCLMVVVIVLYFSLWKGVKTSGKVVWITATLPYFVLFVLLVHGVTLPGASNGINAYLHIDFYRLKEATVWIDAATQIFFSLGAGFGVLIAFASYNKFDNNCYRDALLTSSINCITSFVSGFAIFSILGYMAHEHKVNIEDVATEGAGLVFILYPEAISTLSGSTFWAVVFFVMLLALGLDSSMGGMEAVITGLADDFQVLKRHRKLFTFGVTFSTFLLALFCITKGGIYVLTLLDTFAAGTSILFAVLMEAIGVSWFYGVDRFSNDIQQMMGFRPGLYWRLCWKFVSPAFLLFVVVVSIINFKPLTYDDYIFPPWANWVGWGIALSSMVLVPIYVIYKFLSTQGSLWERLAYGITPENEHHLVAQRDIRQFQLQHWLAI
T27 sequence (Q9Y5N1 whole entry): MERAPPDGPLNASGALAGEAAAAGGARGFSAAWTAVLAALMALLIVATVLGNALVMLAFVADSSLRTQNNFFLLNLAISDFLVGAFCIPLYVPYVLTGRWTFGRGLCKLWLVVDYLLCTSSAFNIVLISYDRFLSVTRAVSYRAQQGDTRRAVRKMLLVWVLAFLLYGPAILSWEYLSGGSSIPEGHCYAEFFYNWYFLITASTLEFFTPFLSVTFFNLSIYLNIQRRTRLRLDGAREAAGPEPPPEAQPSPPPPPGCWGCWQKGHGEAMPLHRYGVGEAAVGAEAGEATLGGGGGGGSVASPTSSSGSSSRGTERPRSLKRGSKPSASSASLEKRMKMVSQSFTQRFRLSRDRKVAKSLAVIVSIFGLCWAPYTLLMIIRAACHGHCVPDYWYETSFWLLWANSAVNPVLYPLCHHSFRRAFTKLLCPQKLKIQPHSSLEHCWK
T19 sequence (P41145 whole entry): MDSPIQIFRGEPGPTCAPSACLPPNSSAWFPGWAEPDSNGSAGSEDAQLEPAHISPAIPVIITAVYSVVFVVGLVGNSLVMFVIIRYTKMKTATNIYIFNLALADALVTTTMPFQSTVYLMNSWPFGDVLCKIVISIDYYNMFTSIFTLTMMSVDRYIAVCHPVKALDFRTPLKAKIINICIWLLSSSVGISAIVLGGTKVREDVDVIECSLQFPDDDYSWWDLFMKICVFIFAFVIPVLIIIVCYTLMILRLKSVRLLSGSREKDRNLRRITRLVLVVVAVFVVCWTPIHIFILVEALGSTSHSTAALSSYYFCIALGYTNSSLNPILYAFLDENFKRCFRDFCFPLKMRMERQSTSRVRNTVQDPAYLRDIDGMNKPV
T4 sequence (P08173 whole entry): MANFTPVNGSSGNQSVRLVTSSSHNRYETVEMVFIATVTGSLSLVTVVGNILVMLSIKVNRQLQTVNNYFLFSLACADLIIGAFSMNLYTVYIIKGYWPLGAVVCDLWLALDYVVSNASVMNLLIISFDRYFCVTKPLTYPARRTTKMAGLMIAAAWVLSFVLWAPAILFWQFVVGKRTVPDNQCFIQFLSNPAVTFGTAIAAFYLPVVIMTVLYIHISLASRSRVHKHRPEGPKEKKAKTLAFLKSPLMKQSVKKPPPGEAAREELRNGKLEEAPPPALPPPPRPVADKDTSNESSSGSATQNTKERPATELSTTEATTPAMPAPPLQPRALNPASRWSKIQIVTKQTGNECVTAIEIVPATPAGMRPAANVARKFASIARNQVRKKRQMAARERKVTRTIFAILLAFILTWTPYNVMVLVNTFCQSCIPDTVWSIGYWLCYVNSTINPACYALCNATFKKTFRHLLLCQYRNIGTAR

SMILES: Cl.Cn1ncc2c1Nc1ccccc1NC2 [SOC-1]
- Viability ([1]; 0.01 μM): 98.9 ± 2.7 percentage of vehicle viability
- Viability ([1]; 0.1 μM): 99.1 ± 2.9 percentage of vehicle viability
- Viability ([1]; 1 μM): 97.7 ± 1.6 percentage of vehicle viability
- Viability ([1]; 10 μM): 97.0 ± 2.5 percentage of vehicle viability
- differences in viability ([1]; 0.01-10 μM): No significant differences in viability
- affinity for M1 (M1): no notable affinity
- affinity for M2 (M2): no notable affinity
- affinity for Beta3 (Beta3): no notable affinity
- affinity for M4 (M4): no notable affinity
- affinity for D1 (D1): no notable affinity
- affinity for D5 (D5): no notable affinity
- affinity for D4 (D4): no notable affinity
- affinity for D2 (D2): no notable affinity
- affinity for NET (NET): no notable affinity
- affinity for Sigma 1 (Sigma 1): no notable affinity
- affinity for 5-HT2B (5-HT2B): no notable affinity
- affinity for Beta1 (Beta1): no notable affinity
- affinity for DAT (DAT): no notable affinity
- affinity for GABAA (GABAA): no notable affinity
- affinity for 5-HT1B (5-HT1B): no notable affinity
- affinity for Alpha2C (Alpha2C): no notable affinity
- affinity for Alpha2A (Alpha2A): no notable affinity
- affinity for D3 (D3): no notable affinity
- affinity for 5-HT2A (5-HT2A): no notable affinity
- affinity for DOR (DOR): no notable affinity
- affinity for KOR (KOR): no notable affinity
- affinity for 5-HT1A (5-HT1A): no notable affinity
- affinity for 5-ht1e (5-ht1e): no notable affinity
- affinity for MOR (MOR): no notable affinity
- affinity for 5-HT2C (5-HT2C): no notable affinity
- affinity for H2 (H2): no notable affinity
- affinity for 5-HT6 (5-HT6): no notable affinity
- affinity for M3 (M3): no notable affinity
- affinity for BZP Rat Brain Site (BZP Rat Brain Site): no notable affinity
- affinity for H3 (H3): no notable affinity
- Fos expression in the oxytocin-positive cells in the supraoptic nucleus of the hypothalamus (SON) ([2]; 5 mg/kg): strongly activates Fos expression
- Mean number of Fos-positive cells, BNST (dorsolateral division) ([2]; OT 1 mg/kg, SOC-1 5 mg/kg): 10.25
- Mean number of Fos-positive cells, BNST (middle anterior part)) ([2]; OT 1 mg/kg, SOC-1 5 mg/kg): 7
- Mean number of Fos-positive cells, Central nucleus of the amygdala ([2]; OT 1 mg/kg, SOC-1 5 mg/kg): 14.33
- Mean number of Fos-positive cells, Lateral Parabrachial nucleus ([2]; OT 1 mg/kg, SOC-1 5 mg/kg): 12.91
- Mean number of Fos-positive cells, Lateral septum (ventral) ([2]; OT 1 mg/kg, SOC-1 5 mg/kg): 34.17
- Mean number of Fos-positive cells, Locus Ceruleus ([2]; OT 1 mg/kg, SOC-1 5 mg/kg): 8.08
- Mean number of Fos-positive cells, Medial preoptic area ([2]; OT 1 mg/kg, SOC-1 5 mg/kg): 10.30
- Mean number of Fos-positive cells, Median preoptic nucleus ([2]; OT 1 mg/kg, SOC-1 5 mg/kg): 7.08
- Mean number of Fos-positive cells, Nucleus of Solitary Tract ([2]; OT 1 mg/kg, SOC-1 5 mg/kg): 17.58
- Mean number of Fos-positive cells, PAG (ventrolateral) ([2]; OT 1 mg/kg, SOC-1 5 mg/kg): 8.58
- Mean number of Fos-positive cells, Paraventircular nucleus ([2]; OT 1 mg/kg, SOC-1 5 mg/kg): 47.18
- Mean number of Fos-positive cells, Supraoptic nucleus ([2]; OT 1 mg/kg, SOC-1 5 mg/kg): 15.42
- Mean percent of OT cells that were Fos positive, Paraventircular nucleus ([2]; OT 1 mg/kg, SOC-1 5 mg/kg): 23.41%
- Mean percent of OT cells that were Fos positive, Supraoptic nucleus ([2]; OT 1 mg/kg, SOC-1 5 mg/kg): 32.59%
- affinity for the orthosteric binding site of V2 (V2): Nor does SOC-1 show any affinity
